Entries after “also recorded” stand apart in the source; their conditions may differ.
How the values were obtained:
E. coli W3110 [1] = details: Test 2, culture covered with equal volume of solvent
Procedure: First a preculture comprising 20 ml of LB medium in a 100-ml baffle flask was inoculated with a cryoculture of the corresponding strain. The culture was cultured overnight at 37° C. with shaking at 200 rpm and was used on the next day, to inoculate an identical main culture to an OD of 0.2. The main cultures (each 30 mL of LB medium) were then incubated further under the same conditions. At an OD of 0.4 to 0.5, the main culture was covered in each case with equal volumes (30 ml) of solvent and was then incubated further.
For determination of the number of CFUs (colony-forming units), in the next tests 0.1-ml samples were taken and were diluted in sterile 0.9% NaCl solution. Suitable dilution steps were plated out on LB-agar plates. After incubation at 34° C. overnight, the colonies that had formed were counted and the CFUs were determined.
In this case two different concentrations of oleic acid were used and the volume was adjusted by adding the corresponding amount of LAME (lauric acid methyl ester).
In this case various amounts of an unsaturated fatty acid were compared with an unsaturated fatty acid with respect to their toxicity when used as liquid cation exchanger. […] The volumes of the various cation exchangers were compared with LAME. The number of CFUs was determined at the start, after 4.5 h and after 24 h.

E. coli BL21(DE3) = test: CFU determination, toxicity of liquid cation exchangers (Example 2); details: for Number of CFUs after 22 or 24 h relative to t = 0 h: Escherichia coli
Excerpt: 50% DEHPA or lauric acid (15%), in each case dissolved in LAME and with equimolar or 25 mol % loading with ALAME, as liquid cation exchanger, was contacted with an E. coli BL21 (DE3) strain and the influence of these two compounds on the strain's ability to form colonies, expressed in CFUs, was investigated.

E. coli W3110 [2] = test: CFU determination, lowering ALAME toxicity by contacting with a liquid cation exchanger (Example 3); assay type: cell-based; details: ALAME 0.2% (w/v) dissolved in aqueous systems
[3] = tested on: ALA and ALAME producing E. coli strain BL21 (DE3) T1r pBT10 pACYC:Duet[TAcv]; test: Oxygen transfer rate (OTR) during biotransformation with various ion exchangers (Example 4); assay type: cell-based; details: 150 mL lauric acid methyl ester with ion exchanger (10% w/w) added to the fermentation broth
Procedure: The biotransformation of lauric acid methyl ester to aminolauric acid methyl ester was tested in the 8-fold parallel fermentation system of DasGip with various ion exchangers.
1 L reactors were used for the fermentation. The pH probes were calibrated by means of a two-point calibration with standard solutions of pH 4.0 and pH 7.0. The reactors were filled with 300 mL water and were autoclaved for 20 min at 121° C., to ensure sterility. Then the pO2 probes were polarized overnight (for at least 6 h). On the next morning, the water was removed under the clean bench and was replaced with high-cell-density medium with 50 mg/L kanamycin and 34 mg/L chloramphenicol. Next the pO2 probes were calibrated with a single-point calibration (stirrer: 600 rpm/gassing: 10 sL/h air) and the feed, correcting-agent and induction-agent sections were cleaned by Clean-in-Place. For this, the hoses were rinsed with 70% ethanol, then with 1 M NaOH, then with sterile deionized water and finally were filled with the respective media.
The ALA and ALAME producing E. coli strain BL21 (DE3) T1r pBT10 pACYC:Duet[TAcv] was first grown from cryoculture in LB medium (25 mL in a 100 mL baffle flask) with 50 mg/L kanamycin and 34 mg/L chloramphenicol overnight at 37° C. and 200 rpm for approx. 18 h.
The 3 cultures were combined in a shaking flask and the optical density was determined as 7.2. For inoculating the reactors at an optical density of 0.1, in each case 4.2 mL was taken up in a 5 mL syringe and the reactors were inoculated by cannula through a septum.
The experiment carried out can be divided into two phases, growing, in which the cells are to reach a specified optical density, and the subsequent biotransformation, in which the expression of the genes necessary for the biotechnological processes of production of ALAME was induced. The pH values were adjusted on one side with ammonia (12.5%) to pH 6.8. During growing and biotransformation, the dissolved oxygen (DO) in the culture was controlled at 30% by means of the stirrer rotary speed and the gassing rate. Fermentation was carried out as fed batch, wherein feed start, 5 g/Lh glucose feed (500 g/L glucose with 1% MgSO4*7H2O and 2.2% NH4Cl), was triggered by a DO peak. […] Expression of transaminase was induced 2 h after feed start by the automatic addition of IPTG (1 mM). Induction of the alk-genes was effected by manual addition of DCPK (0.025% v/v) 10 h after feed start. The optical density of the culture broths was determined before the start of biotransformation.
The biotransformation phase started 14 h after feed start. For this, 150 mL of a mixture of lauric acid methyl ester and the respective ion exchanger (10% w/w) were added as batch to the fermentation broth. Di(2-ethylhexyl-)phosphoric acid (DEHPA), lauric acid, oleic acid, palmitic acid, palmitoleic acid, stearic acid and a mixture of free fatty acids from the saponification of globe thistle oil were used as ion exchangers. In order to make an amino group donor available for the transaminase, 10.7 mL of an alanine solution (125 g/L) was added to the fermentation broth simultaneously with addition of the organic phase. For sampling, 2 mL of fermentation broth was taken from the vessel and a portion of this was diluted 1/20 in an acetone-HCl mixture (c(HCl)=0.1 mol/L) and extracted. Samples were taken from all 8 reactors at 1.25 h, 3 h, 5 h, 20 h, 22 h and […] after the start of biotransformation. The oxygen transfer rate (OTR) and carbon transfer rate (CTR) were determined during the fermentation by exhaust gas analysis on the DasGip systems. The fermentation was ended 22 h after the start of biotransformation.

E. coli W3110 [4] = test: CFU determination, toxicity of the solvent LAME (Example 1)
Procedure: Before the determination of CFUs could be undertaken, an LB plate (10 g/L peptone from casein, 5 g/L yeast extract, 10 g/L NaCl) was streaked with E. coli BW3110 and incubated for 24 h. In the evening of the next day, a preculture of this previously streaked plate was inoculated. […] On the next day the preculture with an OD600 of 0.2 was inoculated in 200 mL of M9 medium (Na2HPO4 6.79 g/L; KH2PO4 3.0 g/L; NaCl 0.5 g/L; NH4Cl 1 g/L; 1 mL/L trace element solution, pH 7.4. Trace element solution: HCl 37% (=455.8 g/L) 36.50 g/L; MnCl2*7H2O 1.91 g/L; ZnSO4*7H2O 1.87 g/L; Na-EDTA*2H2O (Titriplex III) 0.84 g/L; H3BO3 0.30 g/L; Na2MoO4*2H2O 0.25 g/L; CaCl2*2H2O 4.70 g/L; FeSO4*7H2O 17.80 g/L; CuCl2*2H2O 0.15 g/L) with 3% glucose (w/v) and incubated for approx. 20 h. After incubation of the main culture, the cells were harvested, centrifuged at 5258 g and 4° C. for 10 min and, with an OD600 of 30, were resuspended in 10 mL of 50 mM Kpi buffer at pH 7.4 (or 25 mM HEPES buffer pH 7.4, when CFU determinations with ALAME were carried out). Both buffer solutions used contained 5% glucose (w/v). Then the bacterial suspension was transferred to the shaking flasks and the solutions of the respective substances were added. After mixing by swirling the flask, 100 μL of the suspension was withdrawn by pipette and put into 900 μL of prepared sterile saline. This corresponded to sampling at time point t0. The mixtures were then incubated at 250 rpm and 30° C. The CFUs were determined over a period of 22 h. First the samples were taken at time points t0, t3, t6 and t22. For some mixtures another sampling time point t1.5 was added and furthermore another additional dilution series was plated out, in order to minimize deviations.
The OD600 was 60. The cells were resuspended in 10 mL Kpi buffer and then mixed in the flask with 5 mL LAME 98% (w/w). One dilution step per assay was plated out.

## CCCCC(CC)C(=O)O (stereo not drawn) [2-Ethylhexanoic acid]
E. coli W3110 [1]
  Number of CFUs after 22 or 24 h relative to t = 0 h: 0%
E. coli BL21(DE3)
  Number of CFUs after 22 or 24 h relative to t = 0 h: 0%

## COC(=O)CCCCCCCCCCCN [ALAME, 12-aminolauric acid methyl ester]
E. coli W3110 [2]
  action on bacteria: bactericidal action

## CCCCC(CC)COP(=O)(O)OCC(CC)CCCC (stereo not drawn) [DEHPA, di(2-ethylhexyl)phosphoric acid, reference compound]
E. coli BL21(DE3)
  Number of CFUs after 22 or 24 h relative to t = 0 h: 0%
[3]
  course of the OTR after addition of the ion exchanger: drops to 0 within a short time
  toxicity to cells concluded from the OTR: highly toxic to cells

## CC(C)CCCCCC(=O)O [Isononanoic acid]
E. coli W3110 [1]
  Number of CFUs after 22 or 24 h relative to t = 0 h: 0%
E. coli BL21(DE3)
  Number of CFUs after 22 or 24 h relative to t = 0 h: 0%

## CCCCCCCCCCCC(=O)OC [LAME, lauric acid methyl ester]
E. coli W3110 [4]; 5 mL LAME 98% (w/w) with cells in 10 mL Kpi buffer, OD600 60, after 22 h
  percentage drop in the live cell count: 30.3%
E. coli W3110 [4]; 5 mL LAME 98% (w/w) with cells in 10 mL Kpi buffer, OD600 60, over a period of 6 h
  number of CFU/mL: remained constant
E. coli W3110 [4]; compared with potassium phosphate buffer (Kpi) as negative control
  toxicity of LAME with respect to biotechnologically relevant microorganisms: does not have toxic action; also recorded: relatively low toxicity
E. coli BL21(DE3); preliminary tests
  tolerance by the strains used: tolerated well

## CCCCCCCCCCCC(=O)O [Lauric acid]
E. coli BL21(DE3)
  Number of CFUs after 22 or 24 h relative to t = 0 h: 1.2%
[3]
  course of the OTR after addition of the ion exchanger: intrusion of the OTR, but it is less pronounced
  toxicity to cells concluded from the OTR: far less toxic than DEHPA

## CCCCCCCC/C=C\CCCCCCCC(=O)O [oleic acid]
[3]
  toxicity to cells concluded from the OTR: even lower toxicity than the saturated fatty acids

## CCCCCCCCCCCCCCCC(=O)O [palmitic acid]
[3]
  course of the OTR after addition of the ion exchanger: much shallower
  toxicity to cells concluded from the OTR: far less toxic

## CCCCCC/C=C\CCCCCCCC(=O)O [palmitoleic acid]
[3]
  toxicity to cells concluded from the OTR: even lower toxicity than the saturated fatty acids

## CCCCCCCCCCCCCCCCCC(=O)O [stearic acid]
[3]
  course of the OTR after addition of the ion exchanger: much shallower
  toxicity to cells concluded from the OTR: far less toxic
